Reference: ChEMBL document CHEMBL5370552, “Rational design and evaluation of 2-((pyrrol-2-yl)methylene)thiophen-4-ones as RNase L inhibitors” (Eur J Med Chem, 2023)
Activity calls are given as the source filed them. The calls are words filed in the database; no cut-off is given here.

Legend:
[1] = biological target: T1, 2-5A-dependent ribonuclease (Homo sapiens) (UniProt Q05823); test: Inhibition of his6-tagged full length human RNase L expressed in insect cells at 250 uM incubated for 30 min by FRET assay relative to control
T1 sequence (whole entry): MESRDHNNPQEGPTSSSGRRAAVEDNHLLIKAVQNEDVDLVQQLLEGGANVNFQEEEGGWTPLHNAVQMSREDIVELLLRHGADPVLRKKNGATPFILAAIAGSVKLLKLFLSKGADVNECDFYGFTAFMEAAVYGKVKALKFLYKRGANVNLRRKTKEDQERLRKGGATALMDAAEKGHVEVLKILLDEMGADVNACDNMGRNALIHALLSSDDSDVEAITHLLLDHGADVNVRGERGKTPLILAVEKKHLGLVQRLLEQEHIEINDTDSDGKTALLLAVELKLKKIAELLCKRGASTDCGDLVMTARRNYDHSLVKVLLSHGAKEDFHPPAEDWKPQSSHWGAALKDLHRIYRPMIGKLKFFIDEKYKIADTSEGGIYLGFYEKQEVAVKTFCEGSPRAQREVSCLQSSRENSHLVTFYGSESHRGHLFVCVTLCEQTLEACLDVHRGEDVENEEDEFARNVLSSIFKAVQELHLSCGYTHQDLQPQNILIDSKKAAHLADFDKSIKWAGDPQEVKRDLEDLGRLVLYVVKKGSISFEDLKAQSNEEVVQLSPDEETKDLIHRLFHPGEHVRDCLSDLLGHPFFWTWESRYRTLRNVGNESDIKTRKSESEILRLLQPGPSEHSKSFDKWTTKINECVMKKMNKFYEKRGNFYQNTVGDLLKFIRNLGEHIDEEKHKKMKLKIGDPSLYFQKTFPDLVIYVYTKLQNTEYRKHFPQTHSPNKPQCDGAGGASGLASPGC

[2] = biological target: T1, 2-5A-dependent ribonuclease (Homo sapiens); test: Inhibition of his6-tagged full length human RNase L expressed in insect cells at 130 uM incubated for 30 min by FRET assay relative to control
[3] = biological target: T2, 2-5A-dependent ribonuclease (Homo sapiens, UniProt Q05823); test: Inhibition of his6-tagged full length human RNase L expressed in insect cells incubated for 30 min by FRET assay
T2 sequence (Q05823 whole entry): T1 sequence (whole entry)

[4] = biological target: T1, 2-5A-dependent ribonuclease (Homo sapiens); test: Inhibition of his6-tagged full length human RNase L expressed in insect cells at 250 uM incubated for 30 mins in presence of 2-5A and ATP by gel based RNA cleavage assay relative to control
[5] = biological target: T1, 2-5A-dependent ribonuclease (Homo sapiens); test: Inhibition of his6-tagged full length human RNase L expressed in insect cells incubated for 30 mins in presence of 2-5A and ATP by gel based RNA cleavage assay; conditions: dose 250.0 µM
[6] = biological target: T1, 2-5A-dependent ribonuclease (Homo sapiens); test: Binding affinity to his6-tagged full length human RNase L expressed in insect cells by biolayer interferometry analysis
[7] = biological target: T1, 2-5A-dependent ribonuclease (Homo sapiens); test: Inhibition of RNase L in human HeLa cells assessed as ribosomal RNA degradation at 2 uM incubated for 4 hrs by NanoDrop spectrophotometry analysis; assay type: cell-based
[8] = biological target: T1, 2-5A-dependent ribonuclease (Homo sapiens); test: Inhibition of RNase L in human HeLa cells assessed as ribosomal RNA degradation at 10 uM incubated for 4 hrs by NanoDrop spectrophotometry analysis relative to control; assay type: cell-based
[9] = biological target: T1, 2-5A-dependent ribonuclease (Homo sapiens); test: Potency index, ratio of sunitinib IC50 to test compound IC50 for inhibition of his6-tagged full length human RNase L expressed in insect cells incubated for 30 min by FRET assay

| Structure (SMILES) | inhibition [1] [%] | further results |
| --- | --- | --- |
| CCOC(=O)C1=C(Nc2ccc(OC)c(OC)c2)S/C(=C/c2[nH]c(C)c(C(=O)NCCN(CC)CC)c2C)C1=O | 79 | – |
| CCN(CC)CCNC(=O)c1c(C)[nH]c(/C=C2/OC(Nc3cccc(F)c3)=C(C(=O)NCCNC(=O)OC(C)(C)C)C2=O)c1C | 84 | – |
| CCN(CC)CCNC(=O)c1c(C)[nH]c(/C=C2/OC(Nc3ccccc3)=C(C(=O)NC)C2=O)c1C | 74 | – |
| CCN(CC)CCNC(=O)c1c(C)[nH]c(/C=C2/SC(Nc3cccc(OC)c3)=C(C(=O)NCCNC(=O)OC(C)(C)C)C2=O)c1C | – | inhibition [2]: 49% |
| CCN(CC)CCNC(=O)c1c(C)[nH]c(/C=C2/SC(Nc3ccc(F)cc3)=C(C(=O)NC)C2=O)c1C | < 5 | – |
| CCOC(=O)C1=C(Nc2ccccc2)S/C(=C/c2[nH]c(C)c(C(=O)NCCN(CC)CC)c2C)C1=O | 78 | – |
| CCN(CC)CCNC(=O)c1c(C)[nH]c(/C=C2/SC(Nc3cccc(F)c3)=C(C(=O)NCCN)C2=O)c1C | 102 | IC50 [3]: 16 µM; inhibition [4]: 100%; inhibition [5]: Dose-Dependent Effect; Activity [6]: Active; inhibition [7]: Active; inhibition [8]: 100% |
| CCN(CC)CCNC(=O)c1c(C)[nH]c(/C=C2/SC(Nc3cccc(F)c3)=C(C(=O)NCCNC(=O)OC(C)(C)C)C2=O)c1C | 100 | – |
| CCN(CC)CCNC(=O)c1c(C)[nH]c(/C=C2\C(=O)Nc3ccc(F)cc32)c1C | 83 | – |
| CCN(CC)CCNC(=O)c1c(C)[nH]c(/C=C2/SC(Nc3cccc(Cl)c3)=C(C(=O)NCCNC(=O)OC(C)(C)C)C2=O)c1C | 96 | – |
| CCN(CC)CCNC(=O)c1c(C)[nH]c(/C=C2/SC(Nc3ccccc3)=C(C(=O)NCCNC(=O)OC(C)(C)C)C2=O)c1C | 75 | – |
| CCN(CC)CCNC(=O)c1c(C)[nH]c(/C=C2/SC(Nc3cccc(OC)c3)=C(C(=O)NC)C2=O)c1C | 99 | – |
| CCN(CC)CCNC(=O)c1c(C)[nH]c(/C=C2/SC(Nc3ccccc3)=C(C(=O)NCCN)C2=O)c1C | 101 | IC50 [3]: 28 µM |
| CCN(CC)CCNC(=O)c1c(C)[nH]c(/C=C2/OC(Nc3ccccc3)=C(C(=O)NCCN)C2=O)c1C | 93 | – |
| CCOC(=O)C1=C(Nc2ccccc2Br)S/C(=C/c2[nH]c(C)c(C(=O)NCCN(CC)CC)c2C)C1=O | 85 | – |
| CCOC(=O)C1=C(Nc2ccc(OC)cc2)S/C(=C/c2[nH]c(C)c(C(=O)NCCN(CC)CC)c2C)C1=O | 70 | – |
| CCN(CC)CCNC(=O)c1c(C)[nH]c(/C=C2/SC(Nc3cccc([N+](=O)[O-])c3)=C(C(=O)NC)C2=O)c1C | – | inhibition [2]: 60% |
| CCOC(=O)C1=C(Nc2ccc(C(F)(F)F)cc2)S/C(=C/c2[nH]c(C)c(C(=O)NCCN(CC)CC)c2C)C1=O | 90 | – |

| Structure (SMILES) | inhibition [1] [%] | further results |
| --- | --- | --- |
| CCOC(=O)C1=C(Nc2cccc(OC)c2)S/C(=C/c2[nH]c(C)c(C(=O)NCCN(CC)CC)c2C)C1=O | 78 | – |
| CCN(CC)CCNC(=O)c1c(C)[nH]c(/C=C2/OC(Nc3ccccc3)=C(C(=O)NCCNC(=O)OC(C)(C)C)C2=O)c1C | 79 | – |
| CCOC(=O)C1=C(Nc2ccc(C)cc2)S/C(=C/c2[nH]c(C)c(C(=O)NCCN(CC)CC)c2C)C1=O | 83 | – |
| CCOC(=O)C1=C(Nc2ccc(CC)cc2)S/C(=C/c2[nH]c(C)c(C(=O)NCCN(CC)CC)c2C)C1=O | 83 | – |
| CCN(CC)CCNC(=O)c1c(C)[nH]c(/C=C2/SC(Nc3cccc(Cl)c3)=C(C(=O)NC)C2=O)c1C | – | inhibition [2]: 88% |
| CCN(CC)CCNC(=O)c1c(C)[nH]c(/C=C2/SC(Nc3cccc(F)c3)=C(C(=O)NCc3ccccc3)C2=O)c1C | 99 | – |
| CCN(CC)CCNC(=O)c1c(C)[nH]c(/C=C2/SC(Nc3cccc(F)c3)=C(C(=O)NC)C2=O)c1C | 58 | – |
| CCOC(=O)C1=C(Nc2cccc(F)c2)S/C(=C/c2[nH]c(C)c(C(=O)NCCN(CC)CC)c2C)C1=O | 76 | – |
| CCN(CC)CCNC(=O)c1c(C)[nH]c(/C=C2/SC(Nc3cccc(Cl)c3)=C(C(=O)NCCN)C2=O)c1C | 101 | IC50 [3]: 12 µM; inhibition [4]: 100%; inhibition [5]: Dose-Dependent Effect; Activity [6]: Active |
| CCOC(=O)C1=C(Nc2ccc([N+](=O)[O-])cc2)S/C(=C/c2[nH]c(C)c(C(=O)NCCN(CC)CC)c2C)C1=O | 67 | – |
| CCN(CC)CCNC(=O)c1c(C)[nH]c(/C=C2/SC(Nc3cccc(OC)c3)=C(C(=O)NCCN)C2=O)c1C | 101 | IC50 [3]: 13 µM; Ratio IC50 [9]: 30; inhibition [4]: 100%; inhibition [5]: Dose-Dependent Effect; Activity [6]: Active |
| CCN(CC)CCNC(=O)c1c(C)[nH]c(/C=C2/SC(Nc3ccccc3)=C(C(=O)NC)C2=O)c1C | 67 | – |
| CCOC(=O)C1=C(Nc2ccc(F)cc2)S/C(=C/c2[nH]c(C)c(C(=O)NCCN(CC)CC)c2C)C1=O | 80 | – |
| CCN(CC)CCNC(=O)c1c(C)[nH]c(/C=C2/SC(Nc3cccc(C(F)(F)F)c3)=C(C(=O)NC)C2=O)c1C | – | inhibition [2]: 97% |
| CCOC(=O)C1=C(Nc2cccc([N+](=O)[O-])c2)S/C(=C/c2[nH]c(C)c(C(=O)NCCN(CC)CC)c2C)C1=O | 76 | – |
| CCN(CC)CCNC(=O)c1c(C)[nH]c(/C=C2/OC(Nc3cccc(F)c3)=C(C(=O)NCCN)C2=O)c1C | 97 | IC50 [3]: 41.9 µM |
| CCOC(=O)C1=C(Nc2ccc(Br)cc2)S/C(=C/c2[nH]c(C)c(C(=O)NCCN(CC)CC)c2C)C1=O | 90 | – |
